Each structure is given as a SMILES string.

The target in the test is T1, Cys12 of the KRAS 4B G12C protein (Homo sapiens, UniProt P01116, G12C).
T1 construct: This protein contained 188 amino acids in total, including an N-terminal 6-Histidine tag; made in house; host or cells: E. coli BL21
Description: In vitro covalent adduct formation (CAF) assay, LC-MS intact mass. The test is classed as binding. Conditions: 10 uM compound, 60 min. The gist of the method:
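GDP-loaded (>95%) His-TEV-tagged KRAS 4B G12C (residues 1–169), 5 μM in TBS pH 7.4, incubated with 10 μM compound (4% DMSO) at 22° C for one hour. Intact-protein LC-MS gave free:adduct ratios, reported as percent protein modified; duplicate runs.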
On to `C=CC(=O)N1CCN(c2nc(=O)n3c4c(c(-c5ccc(F)cc5)c(C(F)(F)F)cc24)SC[C@@H]3CN2CCN(CC)CC2)CC1` [Example 1378, (S)-7-(4-acryloylpiperazin-1-yl)-3-((4-ethylpiperazin-1-yl)methyl)-10-(4-fluorophenyl)-9-(trifluoromethyl)-2,3-dihydro-5H-[1,4]thiazino[2,3,4-ij]quinazolin-5-one], for which the “% CAF 10 uM @ 60 min” value worked out at 78.9%.

In the case of `C=CC(=O)N1CCN(c2nc(=O)n3c4c(c(-c5c(F)cc(F)cc5F)c(C(F)(F)F)cc24)SC[C@@H]3COC)CC1` [Example 1379, (S)-7-(4-acryloylpiperazin-1-yl)-3-(methoxymethyl)-9-(trifluoromethyl)-10-(2,4,6-trifluorophenyl)-2,3-dihydro-5H-[1,4]thiazino[2,3,4-ij]quinazolin-5-one], the “% CAF 10 uM @ 60 min” value is recorded as 96.7%.

`C=CC(=O)N1C[C@H](C)N(c2nc(=O)n3c4c(c(-c5ccc(F)c(Cl)c5)c(C(F)(F)F)cc24)SC[C@@H]3CN2CCN(CC)CC2)C[C@H]1C` [Example 1380, (S)-7-((2S,5R)-4-acryloyl-2,5-dimethylpiperazin-1-yl)-10-(3-chloro-4-fluorophenyl)-3-((4-ethylpiperazin-1-yl)methyl)-9-(trifluoromethyl)-2,3-dihydro-5H-[1,4]thiazino[2,3,4-ij]quinazolin-5-one]: the “% CAF 10 uM @ 60 min” value came out at 88.4%.

With `C=CC(=O)N1CC2COCC(C1)N2c1nc(=O)n2c3c(c(-c4ccc(F)cc4)c(C(F)(F)F)cc13)SC[C@@H]2COC` [Example 1383, (3S)-7-(7-acryloyl-3-oxa-7,9-diazabicyclo[3.3.1]nonan-9-yl)-10-(4-fluorophenyl)-3-(methoxymethyl)-9-(trifluoromethyl)-2,3-dihydro-5H-[1,4]thiazino[2,3,4-ij]quinazolin-5-one], the “% CAF 10 uM @ 60 min” value is 66%.

In the case of `C=CC(=O)N1C2COCC1CN(c1nc(=O)n3c4c(c(-c5ccc(F)cc5)c(C(F)(F)F)cc14)SC[C@@H]3COC)C2` [Example 1384, (3S)-7-(9-acryloyl-3-oxa-7,9-diazabicyclo[3.3.1]nonan-7-yl)-10-(4-fluorophenyl)-3-(methoxymethyl)-9-(trifluoromethyl)-2,3-dihydro-5H-[1,4]thiazino[2,3,4-ij]quinazolin-5-one], the “% CAF 10 uM @ 60 min” value came to 77.8%.

With `C=CC(=O)N1[C@H](C)CN(c2nc(=O)n3c4c(c(-c5cccc6cnn(C)c56)c(C(F)(F)F)cc24)SC[C@@H]3CN2C[C@@H]3C[C@H]2CO3)C[C@@H]1C` [Example 1385, (3S)-3-(((1S,4S)-2-oxa-5-azabicyclo[2.2.1]heptan-5-yl)methyl)-7-((3S,5R)-4-acryloyl-3,5-dimethylpiperazin-1-yl)-10-(1-methyl-1H-indazol-7-yl)-9-(trifluoromethyl)-2,3-dihydro-5H-[1,4]thiazino[2,3,4-ij]quinazolin-5-one], the “% CAF 10 uM @ 60 min” value is 92.5%.

Take `C=CC(=O)N1[C@H](C)CN(c2nc(=O)n3c4c(c(-c5ccc(F)c(Cl)c5)c(C(F)(F)F)cc24)SC[C@@H](N2CCOCC2)C3)C[C@@H]1C` [Example 1386, (S)-8-((3S,5R)-4-acryloyl-3,5-dimethylpiperazin-1-yl)-11-(3-chloro-4-fluorophenyl)-3-morpholino-10-(trifluoromethyl)-3,4-dihydro-2H,6H-[1,4]thiazepino[2,3-4-ij]quinazolin-6-one]: the “% CAF 10 uM @ 60 min” value stood at 71.6%.

As for `C=CC(=O)N1C[C@H](C)N(c2nc(=O)n3c4c(c(-c5ccc(F)c(Cl)c5)c(C(F)(F)F)cc24)SC[C@@H]3CN2CCN(C3CC3)CC2)C[C@H]1C` [Example 1387, (S)-7-((2S,5R)-4-acryloyl-2,5-dimethylpiperazin-1-yl)-10-(3-chloro-4-fluorophenyl)-3-((4-cyclopropylpiperazin-1-yl)methyl)-9-(trifluoromethyl)-2,3-dihydro-5H-[1,4]thiazino[2,3,4-ij]quinazolin-5-one], the “% CAF 10 uM @ 60 min” value is 71%.

Consider `C=CC(=O)N1C2CCC1CN(c1nc(=O)n3c4c(c(-c5cc(Cl)c(F)cc5F)c(C(F)(F)F)cc14)SC[C@@H]3COC)C2` [Example 1394, (3S,10R)-7-((1R,5S)-8-acryloyl-3,8-diazabicyclo[3.2.1]octan-3-yl)-10-(5-chloro-2,4-difluorophenyl)-3-(methoxymethyl)-9-(trifluoromethyl)-2,3-dihydro-5H-[1,4]thiazino[2,3,4-ij]quinazolin-5-one], for which the “% CAF 10 uM @ 60 min” value was 93.5%.

Regarding `C=CC(=O)N1C2CCC1CN(c1nc(=O)n3c4c(c(-c5cc(Cl)c(F)cc5F)c(C(F)(F)F)cc14)SC[C@@H]3COC)C2` [Example 1395, (3S,10S)-7-((1R,5S)-8-acryloyl-3,8-diazabicyclo[3.2.1]octan-3-yl)-10-(5-chloro-2,4-difluorophenyl)-3-(methoxymethyl)-9-(trifluoromethyl)-2,3-dihydro-5H-[1,4]thiazino[2,3,4-ij]quinazolin-5-one], the “% CAF 10 uM @ 60 min” value worked out at 17.3%.

In the case of `C=CC(=O)N1[C@H](C)CN(c2nc(=O)n3c4c(c(-c5ccc(F)cc5)c(C(F)(F)F)cc24)SC[C@@H](CO)C3)C[C@@H]1C` [Example 1398, (R)-8-((3S,5R)-4-acryloyl-3,5-dimethylpiperazin-1-yl)-11-(4-fluorophenyl)-3-(hydroxymethyl)-10-(trifluoromethyl)-3,4-dihydro-2H,6H-[1,4]thiazepino[2,3,4-ij]quinazolin-6-one], the “% CAF 10 uM @ 60 min” value worked out at 44.2%.

Consider `C=CC(=O)N1[C@H](C)CN(c2nc(=O)n3c4c(c(-c5ccc(F)cc5)c(C(F)(F)F)cc24)SC[C@H](CO)C3)C[C@@H]1C` [Example 1399, (S)-8-((3S,5R)-4-acryloyl-3,5-dimethylpiperazin-1-yl)-11-(4-fluorophenyl)-3-(hydroxymethyl)-10-(trifluoromethyl)-3,4-dihydro-2H,6H-[1,4]thiazepino[2,3,4-ij]quinazolin-6-one], for which the “% CAF 10 uM @ 60 min” value is 95.5%.

For the compound `C=CC(=O)N1[C@@H]2CC[C@H]1CN(c1nc(=O)n3c4c(c(-c5cc(Cl)c(F)cc5F)c(Cl)cc14)SC[C@@H]3CN1CCN(CC)CC1)C2` [Example 1400, (3S)-7-((1R,5S)-8-acryloyl-3,8-diazabicyclo[3.2.1]octan-3-yl)-9-chloro-10-(5-chloro-2,4-difluorophenyl)-3-((4-ethylpiperazin-1-yl)methyl)-2,3-dihydro-5H-[1,4]thiazino[2,3,4-ij]quinazolin-5-one], the “% CAF 10 uM @ 60 min” value was found to be 43.7%.

For `C=CC(=O)N1C2CCC1CN(c1nc(=O)n3c4c(c(-c5cc(Cl)c(F)cc5F)c(C(F)(F)F)cc14)SCC1(COC1)C3)C2` [Example 1401, (R)-8′-((1R,5S)-8-acryloyl-3,8-diazabicyclo[3.2.1]octan-3-yl)-11′-(5-chloro-2,4-difluorophenyl)-10′-(trifluoromethyl)-2′H,4′H,6′H-spiro[oxetane-3,3′-[1,4]thiazepino[2,3,4-ij]quinazolin]-6′-one], the “% CAF 10 uM @ 60 min” value came out at 76.6%.

Consider `C=CC(=O)N1C2CCC1CN(c1nc(=O)n3c4c(c(-c5cc(Cl)c(F)cc5F)c(C(F)(F)F)cc14)SCC1(COC1)C3)C2` [Example 1402, (S)-8′-((1R,5S)-8-acryloyl-3,8-diazabicyclo[3.2.1]octan-3-yl)-11′-(5-chloro-2,4-difluorophenyl)-10′-(trifluoromethyl)-2′H,4′H,6′H-spiro[oxetane-3,3′-[1,4]thiazepino[2,3,4-ij]quinazolin-6′-one], for which the “% CAF 10 uM @ 60 min” value was found to be 6.8%.

In the case of `C=CC(=O)N1[C@@H]2CC[C@H]1CN(c1nc(=O)n3c4c(c(-c5cc(Cl)c(F)cc5F)c(C(F)(F)F)cc14)SC[C@@H]3CN1CCN(CC)CC1)C2` [Example 1403, (3S)-7-((1R,5S)-8-acryloyl-3,8-diazabicyclo[3.2.1]octan-3-yl)-10-(5-chloro-2,4-difluorophenyl)-3-((4-ethylpiperazin-1-yl)methyl)-9-(trifluoromethyl)-2,3-dihydro-5H-[1,4]thiazino[2,3,4-ij]quinazolin-5-one], the “% CAF 10 uM @ 60 min” value is 80.3%.

For `C=CC(=O)N1[C@H](C)CN(c2nc(=O)n3c4c(c(-c5ccc(F)cc5)c(C(F)(F)F)cc24)SC[C@@H](COC)C3)C[C@@H]1C` [Example 1407, (R)-8-((3S,5R)-4-acryloyl-3,5-dimethylpiperazin-1-yl)-11-(4-fluorophenyl)-3-(methoxymethyl)-10-(trifluoromethyl)-3,4-dihydro-2H,6H-[1,4]thiazepino[2,3,4-ij]quinazolin-6-one], the “% CAF 10 uM @ 60 min” value is recorded as 92.7%.

Take `C=CC(=O)N1[C@H](C)CN(c2nc(=O)n3c4c(c(-c5ccc(F)cc5)c(C(F)(F)F)cc24)SC[C@H](COC)C3)C[C@@H]1C` [Example 1408, (S)-8-((3S,5R)-4-acryloyl-3,5-dimethylpiperazin-1-yl)-11-(4-fluorophenyl)-3-(methoxymethyl)-10-(trifluoromethyl)-3,4-dihydro-2H,6H-[1,4]thiazepino[2,3,4-ij]quinazolin-6-one]: the “% CAF 10 uM @ 60 min” value was found to be 83.7%.

Consider `C=CC(=O)N1[C@H](C)CN(c2nc(=O)n3c4c(c(-c5ccc(F)cc5)c(C(F)(F)F)cc24)SCC(COC)(COC)C3)C[C@@H]1C` [Example 1409, 8-((3S,5R)-4-acryloyl-3,5-dimethylpiperazin-1-yl)-11-(4-fluorophenyl)-3,3-bis(methoxymethyl)-10-(trifluoromethyl)-3,4-dihydro-[1,4]thiazepino[2,3,4-ij]quinazolin-6(2H)-one], for which the “% CAF 10 uM @ 60 min” value is 96.5%.

Consider `C=CC(=O)N1[C@H](C)CN(c2nc(=O)n3c4c(c(-c5cc(Cl)c(F)cc5F)c(C(F)(F)F)cc24)SCC(COC)(COC)C3)C[C@@H]1C` [Example 1410, 8-((3S,5R)-4-acryloyl-3,5-dimethylpiperazin-1-yl)-11-(5-chloro-2,4-difluorophenyl)-3,3-bis(methoxymethyl)-10-(trifluoromethyl)-3,4-dihydro-2H,6H-[1,4]thiazepino[2,3,4-ij]quinazolin-6-one], for which the “% CAF 10 uM @ 60 min” value is on record as 95.3%.

The values are drawn from patent publication US20230107642A1 (Erasca, Inc., priority 2020, published 2023).
